Assays:
[1] = target: T1, Adrenergic receptor alpha-1 (Rattus norvegicus, UniProt P15823+P23944+P43140); experiment: In vitro binding affinity against Alpha-1 adrenergic receptor in rat cerebral cortex membrane using [3H]prazosin as radioligand; format: cell membranes
T1 sequence (P15823 whole entry): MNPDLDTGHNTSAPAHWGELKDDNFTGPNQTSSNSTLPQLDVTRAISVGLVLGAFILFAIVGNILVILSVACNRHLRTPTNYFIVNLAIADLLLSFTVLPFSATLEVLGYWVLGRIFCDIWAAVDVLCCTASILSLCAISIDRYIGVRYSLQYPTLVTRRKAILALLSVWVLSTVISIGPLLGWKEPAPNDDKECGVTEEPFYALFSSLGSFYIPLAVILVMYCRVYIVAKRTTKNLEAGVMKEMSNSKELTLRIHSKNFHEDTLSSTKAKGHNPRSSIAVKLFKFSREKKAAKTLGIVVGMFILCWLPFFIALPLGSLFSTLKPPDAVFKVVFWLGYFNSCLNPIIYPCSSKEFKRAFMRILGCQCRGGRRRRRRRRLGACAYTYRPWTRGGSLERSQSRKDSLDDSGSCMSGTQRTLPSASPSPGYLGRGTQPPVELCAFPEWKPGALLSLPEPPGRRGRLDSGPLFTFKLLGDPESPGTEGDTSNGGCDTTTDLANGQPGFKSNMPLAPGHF
T1 sequence (P23944 whole entry): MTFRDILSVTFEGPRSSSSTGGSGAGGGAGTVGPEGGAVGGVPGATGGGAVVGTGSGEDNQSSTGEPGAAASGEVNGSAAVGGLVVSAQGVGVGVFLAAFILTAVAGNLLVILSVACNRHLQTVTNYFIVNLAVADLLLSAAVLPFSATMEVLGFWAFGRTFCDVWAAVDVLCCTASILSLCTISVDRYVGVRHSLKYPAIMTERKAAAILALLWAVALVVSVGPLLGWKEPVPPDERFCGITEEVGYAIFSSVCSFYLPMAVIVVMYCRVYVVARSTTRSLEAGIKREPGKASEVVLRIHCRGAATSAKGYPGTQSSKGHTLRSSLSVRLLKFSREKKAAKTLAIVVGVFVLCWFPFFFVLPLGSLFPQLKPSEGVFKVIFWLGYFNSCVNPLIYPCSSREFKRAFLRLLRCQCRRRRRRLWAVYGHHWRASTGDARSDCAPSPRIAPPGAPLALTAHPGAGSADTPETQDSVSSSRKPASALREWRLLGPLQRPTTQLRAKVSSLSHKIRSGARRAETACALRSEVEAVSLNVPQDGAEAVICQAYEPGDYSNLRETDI
T1 sequence (P43140 whole entry): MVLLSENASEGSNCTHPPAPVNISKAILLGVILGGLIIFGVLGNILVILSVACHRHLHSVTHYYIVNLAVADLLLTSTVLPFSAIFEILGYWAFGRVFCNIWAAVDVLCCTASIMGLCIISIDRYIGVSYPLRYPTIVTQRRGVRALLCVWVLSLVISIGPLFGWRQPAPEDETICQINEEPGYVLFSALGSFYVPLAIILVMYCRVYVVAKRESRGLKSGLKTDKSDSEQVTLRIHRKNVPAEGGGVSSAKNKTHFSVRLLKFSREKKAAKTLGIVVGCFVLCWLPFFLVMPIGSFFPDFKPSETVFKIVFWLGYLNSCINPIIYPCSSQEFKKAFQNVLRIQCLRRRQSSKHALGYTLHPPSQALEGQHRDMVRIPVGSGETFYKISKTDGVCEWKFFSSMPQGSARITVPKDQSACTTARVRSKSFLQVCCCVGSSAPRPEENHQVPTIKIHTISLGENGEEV

D(2) dopamine receptor = D(2) dopamine receptor (Rattus norvegicus, UniProt P61169); experiment: In vitro binding affinity against Dopamine receptor D2 in rat striatum membrane using [3H]raclopride as radioligand; format: cell membranes
[2] = target: T2, 5-hydroxytryptamine receptor 1A (Rattus norvegicus, UniProt P19327); experiment: In vitro binding affinity against serotonin 5-HT1A receptor in rat cerebral cortex membrane using [3H]8-OH-DPAT as radioligand; format: cell membranes
T2 sequence (P19327 whole entry): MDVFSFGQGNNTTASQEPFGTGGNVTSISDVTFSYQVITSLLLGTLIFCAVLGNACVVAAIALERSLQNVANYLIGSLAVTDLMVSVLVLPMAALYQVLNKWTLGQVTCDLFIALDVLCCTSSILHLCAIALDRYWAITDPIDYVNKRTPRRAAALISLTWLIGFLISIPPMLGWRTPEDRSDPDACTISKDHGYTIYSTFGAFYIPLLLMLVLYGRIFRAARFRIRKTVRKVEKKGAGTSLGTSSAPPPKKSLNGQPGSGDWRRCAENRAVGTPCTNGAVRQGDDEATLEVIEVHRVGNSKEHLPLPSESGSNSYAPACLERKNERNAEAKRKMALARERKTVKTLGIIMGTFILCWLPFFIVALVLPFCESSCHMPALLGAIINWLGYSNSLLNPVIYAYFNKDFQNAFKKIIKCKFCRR

[3] = target: T1, Adrenergic receptor alpha-1; experiment: Antagonistic activity (pA2) at Alpha-1 adrenergic receptor in ring segments of rat thoracic aorta contracted by phenylephrine; format: functional, tissue-based
Rattus norvegicus = organism: Rattus norvegicus; experiment: Compound was evaluated for its ability to affect adenylyl cyclase activity in rat hippocampus slice preparation; agonist; format: functional; conditions: filed as agonist

D(2) dopamine receptor, sequence (P61169 whole entry): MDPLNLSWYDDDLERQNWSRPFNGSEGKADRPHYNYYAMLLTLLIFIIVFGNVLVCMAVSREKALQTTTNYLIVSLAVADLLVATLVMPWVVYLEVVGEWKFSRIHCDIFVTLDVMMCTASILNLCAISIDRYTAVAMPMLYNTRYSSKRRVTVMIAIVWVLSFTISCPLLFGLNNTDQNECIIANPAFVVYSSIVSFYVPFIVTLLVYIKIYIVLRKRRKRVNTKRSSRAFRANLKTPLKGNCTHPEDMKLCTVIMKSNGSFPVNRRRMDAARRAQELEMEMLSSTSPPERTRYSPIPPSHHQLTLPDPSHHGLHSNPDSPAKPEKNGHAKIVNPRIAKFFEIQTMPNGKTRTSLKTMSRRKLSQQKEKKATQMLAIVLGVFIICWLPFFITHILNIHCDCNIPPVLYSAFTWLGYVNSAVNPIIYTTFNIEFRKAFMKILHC

O=C1CC(=C(c2ccccc2)c2ccccc2)C(=O)N1CN1CCN(c2ccccc2)CC1
Ki [1]: > 1000 nM
Ki (D(2) dopamine receptor): > 1000 nM
Ki [2]: 98 nM

COc1ccccc1N1CCN(CCN2C(=O)CC(=C(c3ccccc3)c3ccccc3)C2=O)CC1
Ki [1]: 71.5 nM
Ki (D(2) dopamine receptor): 167 nM
Ki [2]: 286 nM

O=C1CC(=C(c2ccccc2)c2ccccc2)C(=O)N1CCCN1CCN(c2ccccc2)CC1
pA2 [3]: 7.79
Ki [1]: 5.7 nM
Ki (D(2) dopamine receptor): > 1000 nM
Ki [2]: > 1000 nM

O=C1CC(=C(c2ccccc2)c2ccccc2)C(=O)N1CCN1CCN(c2ccccc2)CC1
Ki [1]: 214 nM
Ki (D(2) dopamine receptor): > 1000 nM
Ki [2]: > 1000 nM

COc1ccccc1N1CCN(CCCCN2C(=O)CC(=C(c3ccccc3)c3ccccc3)C2=O)CC1
Ki [1]: 14.4 nM
Ki (D(2) dopamine receptor): > 1000 nM
Ki [2]: 13.4 nM

O=C1CC(=C(c2ccccc2)c2ccccc2)C(=O)N1CCCCN1CCN(c2ccccc2)CC1
Ki [1]: 6.4 nM
Ki (D(2) dopamine receptor): > 1000 nM
Ki [2]: 125 nM

O=C1CC(=C(c2ccccc2)c2ccccc2)C(=O)N1CCCN1CCN(c2cccc(C(F)(F)F)c2)CC1
Ki [1]: 62.7 nM
Ki (D(2) dopamine receptor): > 1000 nM
Ki [2]: > 1000 nM

O=C1CC(=C(c2ccccc2)c2ccccc2)C(=O)N1CCCCN1CCN(c2cccc(C(F)(F)F)c2)CC1
Ki [1]: 60.5 nM
Ki (D(2) dopamine receptor): 689 nM
Ki [2]: 15.8 nM

O=C1CC(=C(c2ccccc2)c2ccccc2)C(=O)N1CCCN1CCN(c2cccc(Cl)c2)CC1
Ki [1]: 39.2 nM
Ki (D(2) dopamine receptor): 801 nM
Ki [2]: 127 nM

O=C1CC(=C(c2ccccc2)c2ccccc2)C(=O)N1CCN1CCN(c2ccc(F)cc2)CC1
Ki [1]: 529 nM
Ki (D(2) dopamine receptor): > 1000 nM
Ki [2]: > 1000 nM

O=C1CC(=C(c2ccccc2)c2ccccc2)C(=O)N1CCCN1CCN(c2ccc(F)cc2)CC1
pA2 [3]: 8.63
Ki [1]: 8.3 nM
Ki (D(2) dopamine receptor): > 1000 nM
Ki [2]: > 1000 nM

O=C1CC(=C(c2ccccc2)c2ccccc2)C(=O)N1CCN1CCN(c2cccc(C(F)(F)F)c2)CC1
Ki [1]: > 1000 nM
Ki (D(2) dopamine receptor): > 1000 nM
Ki [2]: > 1000 nM

O=C1CC(=C(c2ccccc2)c2ccccc2)C(=O)N1CCCCN1CCN(c2ccc(F)cc2)CC1
Ki [1]: 51.8 nM
Ki (D(2) dopamine receptor): 351 nM
Ki [2]: 3.3 nM
Activity (Rattus norvegicus): Agonist

O=C1CC(=C(c2ccccc2)c2ccccc2)C(=O)N1CCCCN1CCN(c2cccc(Cl)c2)CC1
Ki [1]: 16.4 nM
Ki (D(2) dopamine receptor): 367 nM
Ki [2]: 39.3 nM

COc1ccccc1N1CCN(CCCN2C(=O)CC(=C(c3ccccc3)c3ccccc3)C2=O)CC1
Ki [1]: 8.1 nM
Ki (D(2) dopamine receptor): 156 nM
Ki [2]: 665 nM

O=C1CC(=C(c2ccccc2)c2ccccc2)C(=O)N1CN1CCN(c2cccc(Cl)c2)CC1
Ki [1]: 392 nM
Ki (D(2) dopamine receptor): > 1000 nM
Ki [2]: 49.4 nM

O=C1CC(=C(c2ccccc2)c2ccccc2)C(=O)N1CCN1CCN(c2cccc(Cl)c2)CC1
Ki [1]: > 1000 nM
Ki (D(2) dopamine receptor): > 1000 nM
Ki [2]: > 1000 nM

O=C1CC(=C(c2ccccc2)c2ccccc2)C(=O)N1CN1CCN(c2ccc(F)cc2)CC1
Ki [1]: 746 nM
Ki (D(2) dopamine receptor): > 1000 nM
Ki [2]: > 1000 nM

COc1ccccc1N1CCN(CN2C(=O)CC(=C(c3ccccc3)c3ccccc3)C2=O)CC1
Ki [1]: > 1000 nM
Ki (D(2) dopamine receptor): > 1000 nM
Ki [2]: 93.8 nM

O=C1CC(=C(c2ccccc2)c2ccccc2)C(=O)N1CN1CCN(c2cccc(C(F)(F)F)c2)CC1
Ki [1]: > 1000 nM
Ki (D(2) dopamine receptor): > 1000 nM
Ki [2]: 59.6 nM
Activity (Rattus norvegicus): Agonist

Reference: ChEMBL document CHEMBL1131313, “1-[omega-(4-arylpiperazin-1-yl)alkyl]-3-diphenylmethylene-2,5- pyrrolidinediones as 5-HT1A receptor ligands: study of the steric requirements of the terminal amide fragment on 5-HT1A affinity/selectivity” (Bioorg Med Chem Lett, 1998)
